Source: patent USRE39034E1, “Molecule involved in binding of sperm to egg surfaces and procedures for use of this molecule to enhance or decrease potential fertility” (The Penn State Research Foundation, priority 1996, dated 2006)
“Also recorded” adds a separate entry of the source. Bridges are numbered along the chain shown (N, C = ends). Where no end group is shown, it is not given here. [ ]: non-standard residue; d: D form.

B1: saposin D: human saposin produced by proteolytic cleavage of prosaposin (protein, UniProt P07602 405-486, looked up)
Saposin-D: DGGFCEVCKKLVGYLDRNLEKNSTKQEILAALEKGCSFLPDPYQKQCDQFVAEYEPVLIEILVEVMDPSFVCLKIGACPSAH
modifications: Saposin-D
notes: human saposin produced by proteolytic cleavage of prosaposin
B2: human saposin B: human saposin produced by proteolytic cleavage of prosaposin (protein, UniProt P07602 195-273, looked up)
Saposin-B: GDVCQDCIQMVTDIQTAVRTNSTFVQALVEHVKEECDRLGPGMADICKNYISQYSEIAIQMMMHMQPKEICALVGFCDE
modifications: Saposin-B
notes: as for B1
B3: saposin C: human saposin produced by proteolytic cleavage of prosaposin (protein, UniProt P07602 311-390, looked up)
Saposin-C: SDVYCEVCEFLVKEVTKLIDNNKTEKEILDAFDKMCSKLPKSLSEECQEVVDTYGSSILSILLEEVSPELVCSMLHLCSG
modifications: Saposin-C
notes: as for B1
B4: saposin A: human saposin produced by proteolytic cleavage of prosaposin (protein, UniProt P07602 60-142, looked up)
Saposin-A: SLPCDICKDVVTAAGDMLKDNATEEEILVYLEKTCDWLPKPNMSASCKEIVDSYLPVILDIIKGEMSRPGEVCSALNLCESLQ
modifications: Saposin-A
notes: as for B1

Key:
[1] = system: frozen-thawed rooster sperm binding to an extract of hen's egg membrane; assay: In vitro microwell sperm-egg binding assay, sperm treated with peptides (fluorescent plate reader); type: cell-based; settings: for Biological activity / sperm binding capability (in words) / Activity relative to SEQ ID NO: 1 / Peptide concentration which, after tenfold dilution of the sperm suspension, provided maximum binding / Concentration at which binding activity was induced (active at): frozen-thawed rooster sperm; for Peptide concentration which, after tenfold dilution of the sperm suspension, provided maximum binding: hen's egg membrane extract in microwell plate
Text: The biological activity of the native UPSEBP prepared from rooster sperm and synthetic amino acid sequences were compared in an in vitro assay of sperm binding described in copending U.S. patent application Ser. No. 08/234,448. This microwell assay used plates in which the wells were coated with a binding substrate prepared from an extract of hen's egg vitelline membrane. The thawed rooster sperm, known to be reduced in UPSEBP, were washed once with isotonic salt solutions, resuspended at 50×10^5/0.1 ml, and incubated 30 minutes with 0.02-50 μg/0.5 ml native UPSEBP or synthetic peptide. Then 0.1 ml of a suspension of about 5×10^6 sperm were placed into each of triplicate wells in a microwell plate. After 2 hours of incubation at 37° C., unbound sperm were washed away and bound sperm were stained and counted using a microscope. The number of sperm bound was considered to be a measure of biological activity because there is a high correlation between the number of rooster sperm bound in vitro to such an egg extract and the fertilizing potential of sperm in that sample, as quantified by the percentage of eggs hatching young chicks after artificial insemination. Table No. 1 presents the amino acid sequence of synthetic peptides and the resulting binding capacity as compared to native UPSEBP (full sequence not provided). Initial evaluations of the capabilities of SEQ ID NO:1 through SEQ ID NO:11, native UPSEBP and rat SGP-1 to enhance sperm binding to an egg-membrane substrate were based on visual counts of bound sperm and conducted over a number of months. The binding data for SEQ ID NO:1 through SEQ ID NO:12 and native UPSEBP and rat SGP-1 presented in Table No. 1 were obtained as two data sets using a recent version of that sperm-egg binding assay in which the bound sperm were stained with a fluorescent dye binding to DNA and quantified using a fluorescent microwell-plate reader, by techniques known to those skilled in the art. The amino acid sequences of portions of human prosaposin (SEQ ID NO:15) and mouse prosaposin (SEQ ID NO:16) also are as shown. [table]

[2] = system: frozen-thawed rooster sperm; assay: Restoration of binding capability of frozen-thawed rooster sperm to hen's egg membrane extract (Examples 1, 2, 6, 7); type: cell-based; settings: FIG. 2
Text: Although the invention has been described generally above, particular examples give additional illustration of the products and method steps typical of the present polypeptide and uses thereof. The data presented in FIGS. 1 to 3 and 6 to 9 show the number of sperm bound per unit area of laid hen's egg perivitelline membrane, or data derived from such binding, or bound to a substrate prepared using an extract from such perivitelline membranes pursuant to the method disclosed in co-pending patent application Ser. No. 08/234,448. Except when noted, native protein extracted from rooster sperm with UPSEBP activity was used.
Freshly collected rooster sperm were cryopreserved, thawed and processed to remove glycerol. One portion of the thawed sperm received crude UPSEBP at a concentration of 2 μg protein per 10^6 sperm. Samples containing 1-10×10^6 sperm were placed into wells coated with an extract of hen's egg membrane and incubated 180 minutes. Non-bound sperm were removed by washing, and bound sperm were stained with diamido-2-phenylindole and counted using an epifluorescent microscope.
Rooster sperm subjected to a cryopreservation cycle were treated with increasing amounts of partially purified UPSEBP and subject to a standard binding assay, together with aliquots of unfrozen (fresh) sperm.
Frozen-thawed turkey sperm were exposed to rooster UPSEBP or semi-purified SGP-1.

Molecule | Biological activity / sperm binding capability (in words) [1] | Activity relative to SEQ ID NO: 1 [1] | Peptide concentration which, after tenfold dilution of the sperm suspension, provided maximum binding [1] | other results
CQSLQEYLAEQNQRQLESNKIPEVDLARVVAPFMSNIPLLLYPQDRPRSQPQPKANEDVC (cysteine pairing not given here) [SEQ ID NO:12] | conferred substantial binding activity especially when oxidized to form a molecule with a hairpin form |  |  | 
SEQ ID NO:2: Table 1 sequence: Tyr-Pro-Gln-Asp-Arg-Thr-Arg-Ser-Gln-Pro-Gln-Pro (YPQDRTRSQPQP; Portion of SEQ ID NO 1 showing lower binding capability.) | lower binding capability | 0.0006 | 300 nmol | 
SEQ ID NO:3: Table 1 sequence: Gln-Pro-Gln-Pro-Lys-Ala-Asn (QPQPKAN; Portion of SEQ ID NO 1 essentially devoid of binding capability.) | essentially devoid of binding capability | 0.0001 | 2,125 nanomoles | 
SEQ ID NO:4: Table 1 sequence: Gln-Pro-Gln-Pro-Lys-Ala-Asn-Glu-Asp-Val-Cys-Gln-Asp-Cys-Met (QPQPKANEDVCQDCM; Addition of amino acids distal to the terminal asparagine of SEQ ID NO 3 does not substantially change biological activity.) | did not substantially change biological activity | 0.002 | 85 nmol | 
SEQ ID NO:5: Table 1 sequence: Pro-Gln-Pro-Lys-Ala-Asn-Glu-Asp-Val-Cys-Gln-Asp-Cys-Met-Lys-Leu-Val-Thr-Asp (PQPKANEDVCQDCMKLVTD; Addition of amino acids distal to the terminal asparagine of SEQ ID NO 3 does not substantially change biological activity.) |  | 0.0003 | 510 nmol | 
SEQ ID NO:6: Table 1 sequence: Tyr-Pro-Gln-Asp-Arg-Thr-Arg-Ser-Gln-Pro-Gln-Cys (YPQDRTRSQPQC; Replacement of the terminal proline of SEQ ID NO 2 with a cysteine does not substantially change biological activity.) | minimal change in biological activity relative to SEQ ID NO:2 | 0.0005 | 370 nmol | 
SEQ ID NO:7: Table 1 sequence: Acetyl-Tyr-Pro-Gln-Asp-Arg-Thr-Arg-Ser-Gln-Pro-Gln-Pro (Ac-YPQDRTRSQPQP) | did not suppress biological activity relative to SEQ ID NO:2 | 0.003 | 50 nmol | 
SEQ ID NO:8: Table 1 sequence: Phe-Phe-Tyr-Pro-Gln-Asp-Arg-Thr-Arg-Ser-Gln-Pro-Gln-Pro (FFYPQDRTRSQPQP; Addition of a phenylalanine group to the NH2 end of SEQ ID NO 2 does not substantially suppress biological activity.) | did not suppress biological activity relative to SEQ ID NO:2 | 0.002 | 100 nmol | 
SEQ ID NO:10: Table 1 sequence: L-Leu-Tyr-Pro-Gln-Asp-Arg-Thr-Arg-Ser-Gln-Pro-Gln-Pro-Lys-Ala-Asn (LYPQDRTRSQPQPKAN; L-amino acids; SITE 1 L-isomer) | greater than that of SEQ ID NO:11; also recorded: reduced activity relative to SEQ ID NO:1 | 0.94 | 8.8 nmol | 
SEQ ID NO:11: Table 1 sequence: D-Leu-Tyr-Pro-Gln-Asp-Arg-Thr-Arg-Ser-Gln-Pro-Gln-Pro-Lys-Ala-Asn ([dL]YPQDRTRSQPQPKAN) | reduced activity relative to SEQ ID NO:1 | 0.001 | 25 nmol | 
SEQ ID NO:12 hairpin form: SEQ ID NO:12 modified by induced oxidation of the SH-groups to a closed loop (CQSLQEYLAEQNQRQLESNKIPEVDLARVVAPFMSNIPLLLYPQDRPRSQPQPKANEDVC; disulfide 1-60 (inferred)) | enhanced biological activity |  |  | Activity relative to the linear form of SEQ ID NO:12 [1]: 5 times; Potency relative to SEQ ID NO:1 [1]: 425 times; Concentration at which binding activity was induced (active at) [1]: 0.4 pM
SEQ ID NO:12 linear form: SEQ ID NO:12 as synthesized, 60 amino acid molecule (CQSLQEYLAEQNQRQLESNKIPEVDLARVVAPFMSNIPLLLYPQDRPRSQPQPKANEDVC; Synthetic peptide embodying the complete intervening sequence between rat saposin A and saposin B.) | substantial biological activity |  |  | Potency relative to SEQ ID NO:9 [1]: approximately 90 times; Concentration at which binding activity was induced (active at) [1]: 2 pM
YPQDRPRSQPQPKAN [SEQ ID NO:9] | substantial binding activity; also recorded: very high biological activity, approximately equal to that of SEQ ID NO:1 | 0.94 | 0.18 nmol | 
YPQDRTRSQPQPKAN [SEQ ID NO:1] | greater biological activity than SEQ ID NO:2 through SEQ ID NO:8 | 1 | 3.17 nmol | Biological activity / sperm binding capability (in words) ([1]; listed as SEQ NO:1): substantial binding activity; Number of sperm bound to the egg membrane substrate ([1]; nanomolar concentrations of peptide): approximately twice as many sperm bound
B1 |  |  |  | Restoration of binding (in words) [2]: ineffective at restoring binding
B2 |  |  |  | Binding restored, percent of that obtained by exposure to UPSEBP ([2]; UPSEBP 2 μg/million sperm): about 70%
B3 |  |  |  | Restoration of binding (in words) [2]: ineffective at restoring binding
B4 |  |  |  | Restoration of binding (in words) [2]: ineffective at restoring binding
